Among the test systems are HCC-2998 colon; NCI-H226 lung; LOX IMVI melanoma; SNB-19 CNS; TK-10 renal; NCI/ADR-RES ovarian; SF-268 CNS; SF-295 CNS; CCRF-CEM leukemia; RXF 393 renal.
Experiment in all cases: inhibition of tumour cell growth, NCI panel, 48 h

“And” between values parts separate entries of the source, which are not always exact repeats. Equal entries are not always repeated.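 Assay format: 96-well plates, 48-hour exposure. GI50 is the concentration that inhibits growth by half. TGI: concentration producing complete growth inhibition.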

As for `CC(=O)N1CC(Nc2ccc(OC(F)(F)F)cc2)=CC1=O`, the GI50 was 3.22 µM in the test with HCC-2998 colon; 3.98 µM in the test on NCI-H226 lung; 2.32 µM in the test with LOX IMVI melanoma; 3.22 µM with SNB-19 CNS; 5.85 µM with TK-10 renal; 0.781 µM in the test with NCI/ADR-RES ovarian. The GI50 with SF-268 CNS was 14.4 µM; in the test on SF-295 CNS it was 2.86 µM; in the test with CCRF-CEM leukemia, 2.52 µM; in the test on RXF 393 renal, 1.65 µM. Moreover, the TGI with HCC-2998 colon is 53.2 µM; in the test on NCI-H226 lung it was 55.9 µM; in the test with LOX IMVI melanoma, > 100 µM; in the test on SNB-19 CNS it was > 100 µM; in the test with TK-10 renal, > 100 µM; with NCI/ADR-RES ovarian, 5.15 µM. Moreover, the TGI with SF-268 CNS was > 100 µM; in the test with SF-295 CNS, > 100 µM; in the test with CCRF-CEM leukemia, > 100 µM; in the test with RXF 393 renal, 5.92 µM.
On to `CCOc1ccc([C@@H]2[C@@H](Oc3ccccc3)C(=O)N2c2cc(OC)c(OC)c(OC)c2)cc1`, for which the GI50 is 0.468 µM in the test with HCC-2998 colon; 1.13 µM in the test on NCI-H226 lung; 0.0642 µM in the test with LOX IMVI melanoma; 0.289 µM in the test with SNB-19 CNS; 16 µM with TK-10 renal; 0.06 µM in the test with NCI/ADR-RES ovarian. The GI50 is 0.0975 µM in the test on SF-268 CNS, 0.0534 µM with SF-295 CNS, 0.048 µM in the test with CCRF-CEM leukemia and 0.0446 µM with RXF 393 renal. Further, the TGI with HCC-2998 colon, in the test with NCI-H226 lung, in the test on LOX IMVI melanoma, in the test on SNB-19 CNS, with TK-10 renal and with NCI/ADR-RES ovarian was > 100 µM in each case. Besides, the TGI in the test on SF-268 CNS, in the test on SF-295 CNS, in the test with CCRF-CEM leukemia and in the test on RXF 393 renal was > 100 µM each time.
As for `CCCCCC(O)C1C(=O)OC(C)C(O)/C=C/C=C/C=C/C=C\C=C(\C)C(O)CC(O)CC(O)CC(O)CC(O)CC(O)CC1O` (stereo not given), the GI50 in the test with HCC-2998 colon, in the test with NCI-H226 lung, in the test on LOX IMVI melanoma, with SNB-19 CNS, in the test on TK-10 renal and in the test on NCI/ADR-RES ovarian was > 100 µM each time. Further, the GI50 in the test with SF-268 CNS, in the test on SF-295 CNS, in the test on CCRF-CEM leukemia and with RXF 393 renal was > 100 µM in each case. Further, the TGI with HCC-2998 colon, with NCI-H226 lung, with LOX IMVI melanoma, in the test on SNB-19 CNS, in the test on TK-10 renal and with NCI/ADR-RES ovarian was > 100 µM each time. The TGI in the test with SF-268 CNS, in the test on SF-295 CNS, with CCRF-CEM leukemia and with RXF 393 renal was > 100 µM in each case.
As to `CC1/C=C/C=C/C=C/C=C/C=C/C=C/C=C/C(O[C@@H]2O[C@H](C)[C@H](O)[C@@H](O)[C@@H]2N)CC(O)C(C(=O)O)C(O)CC(=O)CC(O)CC(O)CC(O)CC(=O)CCCC(=O)CC(=O)OC1C(C)CC(C)C(O)CC(=O)c1ccc(N)cc1` (stereo not given in full), the GI50 with HCC-2998 colon was 0.058 µM and 0.302 µM; with NCI-H226 lung it was 0.218 µM; in the test on LOX IMVI melanoma it was 0.0555 µM and 0.166 µM; in the test on SNB-19 CNS, 0.066 µM and 0.279 µM; in the test with TK-10 renal, 0.0573 µM and 0.315 µM; in the test on NCI/ADR-RES ovarian, 0.0626 µM and 0.209 µM. Moreover, the GI50 with SF-268 CNS was 0.0565 µM and 0.202 µM; in the test with SF-295 CNS it was 0.0692 µM and 0.232 µM; in the test on CCRF-CEM leukemia, 0.0627 µM and 0.206 µM; in the test with RXF 393 renal it was 0.0469 µM and 0.156 µM. The TGI with HCC-2998 colon is 0.104 µM and 1.03 µM; with NCI-H226 lung, 0.581 µM; in the test on LOX IMVI melanoma, 0.101 µM and 0.305 µM; in the test with SNB-19 CNS, 0.147 µM and 1.09 µM; in the test with TK-10 renal it was 0.104 µM and 0.983 µM; in the test with NCI/ADR-RES ovarian it was 0.125 µM and 0.474 µM. For the same compound, the TGI in the test with SF-268 CNS is 0.102 µM and 0.409 µM; in the test on SF-295 CNS, 0.155 µM and 0.605 µM; in the test with CCRF-CEM leukemia, 0.141 µM and 0.489 µM; with RXF 393 renal, 0.0894 µM and 0.304 µM.
For the compound `N#Cc1c(-c2ccc(Cl)cc2)n(O)c2ccccc12`, the GI50 with HCC-2998 colon is 3 µM; in the test on NCI-H226 lung it was 2.83 µM; in the test with LOX IMVI melanoma, 2.24 µM; with SNB-19 CNS, 2.71 µM; in the test with TK-10 renal, 3.64 µM; in the test on NCI/ADR-RES ovarian, 1.43 µM. Besides, the GI50 with SF-268 CNS was 2.6 µM; with SF-295 CNS, 2.33 µM; in the test on CCRF-CEM leukemia, 3.37 µM; with RXF 393 renal, 1.8 µM. Also, the TGI with HCC-2998 colon was 8.01 µM; with NCI-H226 lung, 12 µM; in the test with LOX IMVI melanoma it was 13.4 µM; with SNB-19 CNS, 80.4 µM; in the test on TK-10 renal it was 9.16 µM; with NCI/ADR-RES ovarian, 4.2 µM. Also, the TGI in the test on SF-268 CNS worked out at 25.5 µM; in the test on SF-295 CNS it was 6.09 µM; in the test on CCRF-CEM leukemia it was 23.2 µM; in the test with RXF 393 renal, 5.84 µM.
Regarding `Cc1cc2cc3cc(C)c(N(C)C)cc3nc2cc1N(C)C`, the GI50 in the test with HCC-2998 colon is 3.61 µM; in the test with NCI-H226 lung it was 3.19 µM; with LOX IMVI melanoma it was 3.33 µM; in the test with SNB-19 CNS, 3.56 µM; with TK-10 renal, 4.03 µM; with NCI/ADR-RES ovarian, 31.7 µM. For the same compound, the GI50 is 3.45 µM with SF-268 CNS, 1.81 µM with SF-295 CNS, 8.99 µM in the test with CCRF-CEM leukemia and 7.14 µM in the test with RXF 393 renal. Moreover, the TGI in the test with HCC-2998 colon was 14.6 µM; in the test on NCI-H226 lung, 24 µM; in the test on LOX IMVI melanoma, 78 µM; in the test on SNB-19 CNS it was > 100 µM; in the test with TK-10 renal it was 31.2 µM; in the test on NCI/ADR-RES ovarian it was > 100 µM. Further, the TGI is 15.1 µM in the test with SF-268 CNS, 8.52 µM in the test on SF-295 CNS, > 100 µM in the test on CCRF-CEM leukemia and 31.2 µM in the test on RXF 393 renal.
On to `Cc1nc2sccn2c(=O)c1CCN1CCC(=C(c2ccc(F)cc2)c2ccc(F)cc2)CC1`, for which the GI50 in the test on HCC-2998 colon was 12.3 µM; in the test on NCI-H226 lung it was 15.3 µM; in the test with LOX IMVI melanoma it was 8.18 µM; with SNB-19 CNS, 16 µM; with TK-10 renal, 13.9 µM; in the test on NCI/ADR-RES ovarian it was 13.8 µM. Besides, the GI50 is 15.9 µM in the test on SF-268 CNS, 13 µM in the test with SF-295 CNS, 0.559 µM in the test on CCRF-CEM leukemia and 11.3 µM with RXF 393 renal. The TGI turned out to be 27.5 µM in the test on HCC-2998 colon; 41 µM in the test with NCI-H226 lung; 22.9 µM in the test with LOX IMVI melanoma; 30.3 µM in the test on SNB-19 CNS; 27.6 µM with TK-10 renal; 32.9 µM in the test with NCI/ADR-RES ovarian. Also, the TGI in the test with SF-268 CNS is 32.8 µM; in the test with SF-295 CNS, 28.7 µM; in the test with CCRF-CEM leukemia, 26.3 µM; in the test on RXF 393 renal it was 26.9 µM.

The values are drawn from PubChem BioAssay (NCI).
